Legend:
[1] = acute toxicity study; settings: in vivo, mice and rats
[2] = system: cardiac lymphatics; experiment: post-mortem cardiac lymphangiography in normal dog hearts (first study); assay type: in vivo, mongrel dogs; settings: normal myocardium
Method: I. In a first study the effect of calcium dobesilate was compared to Hyaluronidase on the visualization of cardiac lymphatics in normal dog hearts (not infarcted). 18 healthy mongrel dogs of either gender were divided into 3 groups each of 6 animals. […] The dogs in the second group received an intravenous injection of Hyaluronidase (500 I.U./kg) and those of the third group received an i.v. injection of calcium dobesilate (50-100 mg/kg). Post-mortem cardiac lymphangiography was performed after killing the animals and extracting the hearts 6 hours after the administration of either product. The results of the 2 groups were compared to that of the controls. The technique of cardiac lymphangiography used was that described by Szlavy L., Adams D., Hollenberg N. K. and Abrams H., published in the American Heart Journal, Vol. 100, Nr. 3, pp 323-331, Sept. 1980 (8). The technique consisted in injecting a contrast agent (30 g barium sulphate+2-5 ml of Iodamid 420) into the superficial lymphatic vessels of the heart using a Becton-Dickinson lymphangiography set. The contrast agent was injected under gentle manual pressure until the lymphatic vessels in the left ventricle were filled (multiple injections starting from the apex to the base of the heart). The heart was then X-rayed with 5-fold magnification using a 0,1 mm focal spot X-raytube and with exposure factors of 50 KV, 0,01 second and 30 mA. With this technique it was possible to visualize the 40-80 microns lymphatic vessels. A grid was applied on the lymphangiograms which consisted of lines drawn at right angles, 1 cm apart. Each 5×5 cm^2 served as a single unit as it corresponded to 1 cm^2 of the left ventricular myocardium (5-fold magnification was used for filming). A point was counted whenever a crossing coincided with a visualized lymph vessel in the lymphangiogram. In this way a quantitative index was obtained based on the number of lymph vessels/cm^2 or to the percent of the left ventricular surface area.

[3] = system: cardiac lymphatics; experiment: cardiac lymphangiography in normal dogs and dogs with LAD coronary artery ligation (second study); assay type: in vivo, mongrel dogs; settings: 100 mg/kg i.v.
Method: II. The second study was performed to evaluate the influence of calcium dobesilate on the visualization of the lymphatic vessels in the infarcted and non-infarcted zones after ligation of the left anterior descending (LAD) coronary artery in 37 mongrel dogs. In 6 dogs the coronary artery was not occluded (group I). […] Therefore a larger control series was not required. In 6 normal dogs CLS 2210 (calcium dobesilate) was administered in a single dose of 100 mg/kg by intravenous infusion in 100 ml of physiological saline or glucose. Six hours after administration of CLS 2210 (calcium dobesilate) the dogs were killed and cardiac lymphangiography was performed post-mortem (group I) as described above (8). In 7 dogs the coronary artery was occluded and lymphangiography was performed post-mortem 30 minutes after the occlusion (group II). In 6 other dogs the coronary artery was occluded and lymphangiography was performed 360 minutes after coronary artery occlusion (group III). An additional 12 dogs were treated with CLS 2210 (calcium dobesilate) in a single dose of 100 mg/kg by intravenous infusion immediately after coronary artery occlusion. In 6 of these dogs, post-mortem lymphangiography was performed 30 minutes following coronary artery occlusion (group II), and in the other 6 it was performed 360 minutes after occlusion (group III). The infarcted zone of myocardium was identified in vivo by direct inspection after coronary artery occlusion according to the usual indices, including color change and disordered contraction. […] Both the infarcted (LAD) and non-infarcted zones (the non-[…] zone was the region of the left circumflex coronary artery or LCC) were evaluated, the non-infarcted zone serving for comparison. Mean values were presented with the standard error of the mean as the index of dispersion. Statistical analysis was done, where appropriate, with the student t-test or by non-parametric methods in the form of the Wilcoxon ranks sum test or Fisher's s exact test. The null hyothesis was rejected when p was less than 0,05.

[4] = system: cardiac arrhythmia in dogs; experiment: cardiac arrhythmia in dogs induced by electrical stimulation (third study); assay type: in vivo, mongrel dogs; settings: 4 hours of stimulation (>180 beats/minute); 50-75 mg/kg i.v. bolus; untreated: tachyarrhythmia bursts, extrasystoles
Method: III. In a third study it was evaluated the effect of calcium dobesilate on cardiac arrhythmia in dogs induced by electrical stimulation, to produce EKG changes and cardiac lymphostasis similar to those observed in sick sinus syndrome in man (4,5). […] The other three dogs served as controls. EKG records were made 4 hours later in all animal.

[5] = system: infarct size, left ventricle; assay type: in vivo, mongrel dogs
Method: IV. In a fourth study the influence of calcium dobesilate on infarct size was evaluated by the double-blind technique. The study was performed in 14 mongrel dogs of either gender weighing about 23-25 kg.
Anesthesia was induced and maintained with sodium pentobarbital (30 mg/kg) and ventilation was maintained through an endotracheal tube with a Harvard respirator providing 200-300 cc of room air/breath at a rate of 18-20/minute.
Coronary artery occlusion in all dogs was obtained by ligation of the LAD just distal to the first septal branch.
The left circumflex artery (LCC) was not ligated and its territory being non-infarcted was used as a control. After ligation of the LAD artery the chest was closed. Calcium dobesilate or the placebo were administered by intravenous perfusion during 7 days according to the following schedule:
0-1 hour after LAD ligation 100 mg/kg i.v. in 100 ml saline
2-3 hours after LAD ligation 100 mg/kg i.v. in 100 ml saline
4-6 hours after LAD ligation 75 mg/kg i.v. in 100 ml saline
7-12 hours after LAD ligation 50 mg/kg i.v. in 100 ml saline
13-24 hours after LAD ligation 50 mg/kg i.v. in 100 ml saline
2-5 days after LAD ligation 3 × 50 mg/kg i.v. in 50 ml saline
6-7 days after LAD ligation 3 × 25 mg/kg i.v. in 50 ml
After 7 days the animals were killed and the hearts were sliced in sections of 1 cm (from the apex to the base). The infarcted and non-infarcted zones of the left ventricle were planimetered to evaluate the infarct size in % in relation to the whole left ventricle. Then the infarcted and non infarcted zones were weighed to determine the size of the infarcted zone in grams in relation to the size of the whole left ventricle.

[6] = system: cardiac lymphatics; experiment: cardiac lymphangiography in normal dogs and dogs with LAD coronary artery ligation (second study); assay type: in vivo, mongrel dogs; settings: intravenous infusion, dogs

## O=S(=O)(O)c1cc(O)ccc1O [calcium dobesilate, calcium 2,5-dihydroxybenzenesulfonate]
[1]; intravenous
  LD50: 750 mg/kg
[1]; oral
  LD50: > 4000 mg/kg
[2]
  number of visualized lymphatics/cm^2 and equivalent left ventricular surface, comparison with Hyaluronidase and control groups: much higher
[2]; 6 h after i.v., Hyaluronidase 500 I.U./kg, calcium dobesilate 50-100 mg/kg, controls 1.64 ± 0.11, P <0.001 in relation to control
  No of lymphatics per cm^2: 5.22 ± 0.34 per cm^2
[2]; 6 h after i.v., Hyaluronidase 500 I.U./kg, calcium dobesilate 50-100 mg/kg, controls 6.6%, P <0.001
  Equivalence to ventricular surface: 20.9%
[3]; group I, normal dogs without MI, 360 min, untreated 1,84 ± 0,18, p <0,001
  mean points count/cm^2, LCC zone (non infarcted): 5,22 ± 0,34 points/cm^2
[3]; group I, normal dogs without MI, 360 min, untreated 7,2%, listed as CLS 2210, 100 mg/kg
  ventricular surface occupied by lymphatics: 20.9%
[3]; group I, normal dogs without MI, 360 min, untreated 7,2%, listed as CLS (ca. dobesilate), 100 mg/kg
  ventricular surface occupied by lymphatics: 20,9%
[3]; group I, normal dogs without myocardial infarction, 360 min, untreated 1,81 ± 0,18, p <0,001
  mean points count/cm^2, LAD zone: 5,20 ± 0,34 points/cm^2
[3]; group I, normal dogs, 6 h, p<0,001 vs untreated normal myocardium
  point counts, normal myocardium: 5,22±0,34 points/cm^2
[3]; group II, dogs with MI, 30 min, untreated 3,1%
  ventricular surface occupied by lymphatics: 9,8%
[3]; group II, dogs with MI, 30 min after occlusion, untreated 0,78 ± 0,07, p <0,01, listed as CLS 2210, 100 mg/kg
  mean points count/cm^2, LAD zone (infarcted): 2,43±0,06 points/cm^2
[3]; group II, dogs with MI, 30 min after occlusion, untreated 0,78 ± 0,07, p <0,01, listed as CLS (ca. dobesilate), 100 mg/kg
  mean points count/cm^2, LAD zone (infarcted): 2,43 ± 0,06 points/cm^2
[3]; group II, dogs with MI, 30 min after occlusion, untreated 1,47 ± 0,07, listed as CLS 2210, 100 mg/kg
  mean points count/cm^2, LCC zone (non infarcted): 2,75±0,22 points/cm^2
[3]; group II, dogs with MI, 30 min after occlusion, untreated 1,47 ± 0,07, listed as CLS (ca. dobesilate), 100 mg/kg
  mean points count/cm^2, LCC zone (non infarcted): 2,75 ± 0,22 points/cm^2
[3]; group III, dogs with MI, 360 min, untreated 3,2%
  ventricular surface occupied by lymphatics: 24,8%
[3]; group III, dogs with MI, 360 min after occlusion, untreated 0,80 ± 0,08, p <0,001, listed as CLS 2210
  mean points count/cm^2, LAD zone (infarcted): 6,15±0,18 points/cm^2
[3]; group III, dogs with MI, 360 min after occlusion, untreated 0,80 ± 0,08, p <0,001, listed as CLS (ca. dobesilate)
  mean points count/cm^2, LAD zone (infarcted): 6,15 ± 0,18 points/cm^2
[3]; group III, dogs with MI, 360 min after occlusion, untreated 2,57 ± 0,05, listed as CLS 2210, 100 mg/kg
  mean points count/cm^2, LCC zone (non infarcted): 2,45±0,13 points/cm^2
[3]; group III, dogs with MI, 360 min after occlusion, untreated 2,57 ± 0,05, listed as CLS (ca. dobesilate), 100 mg/kg
  mean points count/cm^2, LCC zone (non infarcted): 2,45 ± 0,13 points/cm^2
[4]
  EKG tracings after rapid electrical stimulation: practically normal EKG tracings
[5]; dog, in vivo
  drug's tolerance during the experimental period: perfect
[5]; dog, in vivo, iv
  side-effects attributable to the drug: No side-effects
[5]; mean of 8 dogs, i.v. perfusion 7 days, placebo mean 54,1%
  infarct size % of whole area of left ventricle, planimetry, MEAN: 26,2%
[5]; mean of 8 dogs, i.v. perfusion 7 days, placebo mean 54,4%
  infarct size % of left ventricle, weight, MEAN: 27,9%
[5]; planimetry and weight analysis, p<0,001
  reduction in infarct size compared to placebo: 50 % less
[6]
  most effective infused dose: 100 mg per kg body weight

Reference: patent publication US4513007A, “Method for treating heart disease” (priority 1983, dated 1985)
